{"source": "patent US20240285780A1", "about": "(priority 2020, published 2024)", "key": {"Elastin": {"tested_on": "Elastin", "format": "cell-based, mouse"}, "Fibronectin": {"tested_on": "Fibronectin", "format": "cell-based, mouse"}, "[1]": {"tested_on": "neuroblastoma-derived cell line (SH-SY5Y)", "format": "cell-based"}, "[2]": {"tested_on": "collagen type I alpha 1 (Col1a1)", "format": "cell-based, mouse"}, "Sprague-Dawley rats": {"tested_on": "Sprague-Dawley rats", "conditions": "rat, in vivo"}}, "note": "“And” between values parts separate entries of the source, which are not always exact repeats. Equal values may be shown once. Where a SMILES comes first, the peptide text is derived from it. [ ]: non-standard residue; d: D form. The star is where a group is joined. Trolox = Cc1c(C)c2c(c(C)c1O)CCC(C)(C(=O)*)O2; Cha = N[CH](CC1CCCCC1)C(=O)O", "data": [{"compound": "CCC(C)C(NC(=O)C(CC(C)C)NC(=O)C(CC1CCCCC1)NC(=O)C(CCCCN)NC(=O)C1(C)CCc2c(C)c(O)c(C)c(C)c2O1)C(=O)NC(CCCCN)C(=O)O", "note": "(stereo not drawn) [trolox-peptide conjugate] (Trolox-K[Cha]LIK-OH; configuration not given here)", "values": [{"measurement": "expression level of elastin", "setting": "Elastin", "result": "significantly increased"}, {"measurement": "expression level of fibronectin", "setting": "Fibronectin", "result": "significantly increased"}, {"measurement": "release of acetylcholine", "setting": "[1]", "result": "significantly inhibited"}, {"measurement": "expression level of collagen (Col1a1)", "setting": "[2]", "result": "significantly increased"}, {"measurement": "DAS Score", "setting": "Sprague-Dawley rats", "result": "4 and 2 and 3"}, {"measurement": "duration of the muscle relaxation effect", "setting": "Sprague-Dawley rats", "result": "lasted longer"}]}]}
